# Legend:
# human GIP Receptor = biological target: T1, human GIP Receptor (Homo sapiens, UniProt P48546); assay: In vitro binding activity to human GIP receptor ([125I]GIP displacement, crude cell membranes); conditions: ratio of the Ki value of the endogenous ligand to the Ki value of the test compound; larger ratio = stronger binding
# T1 construct: expressed in transfected cells
# T1 sequence (P48546 22-466): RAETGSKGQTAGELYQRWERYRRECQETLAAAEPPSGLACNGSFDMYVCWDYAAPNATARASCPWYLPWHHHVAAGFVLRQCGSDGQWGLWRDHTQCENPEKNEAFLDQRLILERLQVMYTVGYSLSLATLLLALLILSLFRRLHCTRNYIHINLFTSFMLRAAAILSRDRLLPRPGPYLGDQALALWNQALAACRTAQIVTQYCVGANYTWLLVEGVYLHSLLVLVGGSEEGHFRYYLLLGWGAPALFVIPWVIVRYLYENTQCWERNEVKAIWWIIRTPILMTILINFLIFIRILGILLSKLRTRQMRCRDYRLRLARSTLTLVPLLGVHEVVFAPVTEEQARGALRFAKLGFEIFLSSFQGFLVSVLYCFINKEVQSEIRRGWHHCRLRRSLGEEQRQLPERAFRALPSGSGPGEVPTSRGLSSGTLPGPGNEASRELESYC
# [1] = Pharmacokinetics following single administration in SD rats; conditions: male, Sprague-Dawley, rat, in vivo, sc, SD rats, subcutaneous injection, 50 nmol/kg
# In short: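 Male SD rats (230-268 g, n=3) dosed once at 50.0 nmol/kg s.c. or 25.0 nmol/kg i.v. Plasma proteins precipitated with acetonitrile containing internal standards; drug levels quantified by LC-MS/MS.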
# [2] = Repeated administration on male rats for 2 weeks (toxicity, toxicokinetics); type: in vivo, SD male rats
# Description: 77 SD male rats (SPF grade) were selected and randomly divided into 10 groups based on body weight. Group 1 was the vehicle control group, including 5 animals. […] Group 5 to Group 7 were the groups administrated with the test substance 1; and Group 8 to Group 10 were the groups administrated with the test substance 2, each group including 8 animals, wherein 5 animals for primary test, and 3 animals for toxicokinetics test, and the administration dose was 1, 3 and 10 mg/kg respectively. Each of the above groups was continuously administered twice a week for 2 weeks (administrating at Day 1, Day 5, Day 8, Day 12 and Day 15).
# During the experiment, the cage condition monitoring, detailed clinical observations, determination of the food consumption, determination of body weight, measurement of the blood biochemical and hematology indicator, investigation of the gross anatomy, weighing of the organ, studying on toxicokinetic were performed on all the groups of the animals.
# Original data during each time period was tabulated. The average values and standard deviations and/or group change were calculated for each assay endpoint based on the group and sex. For each endpoint, the administrated group will be compared with the control group in the following aspect. A logarithmic conversion was performed to the endpoint data as desired prior to the start of the specific analyses.
smiles,measurement,setting,value
CC[C@H](C)[C@H](NC(=O)C(C)(C)NC(=O)[C@H](Cc1ccc(O)cc1)NC(=O)[C@H](CC(=O)O)NC(=O)[C@H](CO)NC(=O)[C@@H](NC(=O)C(C)(Cc1ccccc1)NC(=O)[C@@H](NC(=O)CNC(=O)[C@H](CCC(=O)O)NC(=O)C(C)(C)NC(=O)[C@@H](N)Cc1ccc(O)cc1)[C@@H](C)O)[C@@H](C)O)C(=O)NC(C)(C)C(=O)N[C@@H](CC(C)C)C(=O)N[C@@H](CC(=O)O)C(=O)N[C@@H](CCCCN)C(=O)N[C@@H](CCC(N)=O)C(=O)N[C@@H](C)C(=O)N[C@@H](CCC(N)=O)C(=O)N[C@@H](C)C(=O)N[C@@H](CCC(=O)O)C(=O)N[C@@H](Cc1ccccc1)C(=O)N[C@H](C(=O)N[C@@H](CCCCNC(=O)COCCOCCNC(=O)COCCOCCNC(=O)COCCOCCNC(=O)CC[C@H](NC(=O)CCCCCCCCCCCCCCCCCCCCC(=O)O)C(=O)O)C(=O)N[C@@H](Cc1c[nH]c2ccccc12)C(=O)N[C@@H](CC(C)C)C(=O)N[C@@H](CC(C)C)C(=O)N[C@@H](CCCCN)C(=O)NCC(=O)NCC(=O)N1CCC[C@H]1C(=O)N[C@@H](CO)C(=O)N[C@@H](CO)C(=O)NCC(=O)N[C@@H](C)C(=O)N1CCC[C@H]1C(=O)N1CCC[C@H]1C(=O)N1CCC[C@H]1C(=O)N[C@@H](CO)C(=O)N[C@@H](CCCCN)C(N)=O)C(C)C (stereo partly shown) [Compound P016],GIPR Ki ratio,human GIP Receptor,0.11
same,AUC(0-inf),[1],5.07 ± 0.262 µM·h
same,AUC(0-t),[1],4.84 ± 0.27 µM·h
same,Cmax,[1],119 ± 7 nM
same,half-life,[1]; read-out: T1/2 (converted),14.1 ± 0.153 h
same,Tmax,[1]; read-out: Tmax,24 h
same,MTD,"[2]; MTD for 2 weeks, rats",1924 nmol/kg (MTD for 2 weeks)
same,dose at which decrease of the body weight was observed after the first administration,[2]; SD male rats,≥ 1 mg/kg
same,Gross Anatomy,"[2]; SD male rats, 1, 3, 10 mg/kg twice a week for 2 weeks",no abnormalities were found
same,accumulation (toxicokinetic),"[2]; SD male rats, administered twice a week for 2 weeks",no substantial accumulation
same,MTD at 336 h,"[2]; Sprague-Dawley, rat, in vivo, SD male rats, administered twice a week for 2 weeks",≥ 10 mg/kg
same,Safety Window (based on dosage),[2]; rat 2-week MTD versus efficacy dose,1282
same,"safety window (based on exposure), times of that of Tirzepatide","[2]; rat, in vivo",more than 7 times
